Where no end group is shown, it is not given here.
Legend:
[1] = tested on: HA-1 specific T cell clones 3HA15, clone 15 and 5W38 (T2 target cells); assay: 51Cr-release reconstitution assay: synthetic peptide on T2 cells with HA-1 specific CTL clones; assay type: cell-based, human; conditions: for recognition by HA-1 specific CTL clones / reconstitution of the HA-1 epitope: synthetic peptide titrated on T2 cells, 51Cr-release
Experimental: b. Reconstitution assay with different concentrations of synthetic mH HA-1 peptide with three HA-1 specific T cell clones, 3HA15, clone 15 and 5W38. Background lysis of T2 by the CTL in the absence of any peptide was for 3HA15 4%, for clone 15 10% and for 5W38 2%. Positive control lysis was for 3HA15 46%, for clone 15 47% and 5W38 48 48%.
b. Reconstitution assay with different concentrations of synthetic […] peptide with HA-1 specific T cells. The HA-1^R peptide was titrated and preincubated with T2 cells. Three HA-1 specific T cells clones, 5W38, 3HA15 and clone 15 were added and a 4 hr ^51Cr-release assay was performed. Background lysis of T2 by the CTL in the absence of any peptide was for 3HA15 4%, for clone 15 10% and for 5W38 2%. Positive control lysis was for 3HA15 46%, for clone 15 47% and 5W38 48%.
HPLC fractions and synthetic peptides were tested in a ^51Cr-release assay as described^24. 2500 ^51Cr labeled T2 cells in 25 μl were incubated with 25 μl peptide dissolved in Hanks 50 mM Hepes for 30 minutes at 37° C. Cytotoxic T cells were added in an endvolume of 150 μl. When HPLC peptide fractions were tested, T2 was incubated with 2 μg/ml MA2.1 during the ^51Cr labelling. After 4 hours at 37° C. the supernatants were harvested.

[2] = tested on: recombinant HLA-A2.1 and β2-microglobulin; assay: HLA-A2.1 peptide binding assay (inhibition of binding of fluorescent standard peptide […], cell free); set-up: species or system human; conditions: for IC50: cell free, determined on the results of 4 experiments, read-out: IC50 (concentration that inhibited the binding of a fluorescent standard peptide to HLA-A2.1 by 50%); for binder category for HLA-A2.1: classified from the IC50
Experimental: a. Binding of HA-1^H and HA-1^R peptides to HLA-A2.1. The binding of HA-1^H and HA-1^R peptides were assayed for their ability to inhibit the binding of fluorescent peptide […] to recombinant HLA-A2.1 and β2-microglobulin in a cell free peptide binding assay. One representative experiment is shown.
A quantitative assay for HLA-A2.1 binding peptides based on the inhibition of binding of the flourescent labeled standard peptide Hbc 18-27 F to C6 ([…]) to recombinant HLA-A2.1 protein and β2-microglobulin was used ^26,27. In short, HLA-A2.1 concentrations yielding approximately 40-60% bound fluorescent standard peptide were used with 15 pmol/well (150 nM) β2-microglobulin (Sigma). Various doses of the test peptides were coincubated with 100 fmol/well (1 nM) fluorescent standard peptide. HLA-A2.1 and β2-microglobulin for 1 days at room temperature in the dark in a volume of 100 μl in assay buffer. The percent of MHC-bound fluoescence was determined by gel filtration and the 50% inhibitory dose was deduced for each peptide using one-site competition non-linear regression analysis with the prismgraph software. Synthetic peptides were manufactured on a Abimed 422 multiple peptide synthesizer (Abimed, Langenfeld, Germany) and were more than 90% pure as checked by reverse phase HPLC.

| Sequence | EC50 ([1]; 3 different HA-1 specific CTL clones, T2 target cells, 4 hr, read-out: half maximal activity in CML (51Cr-release) assay) [nM] | recognition by HA-1 specific CTL clones / reconstitution of the HA-1 epitope [1] | IC50 [2] [nM] | binder category for HLA-A2.1 [2] | peptide concentration needed for recognition, times higher than for the HA-1^H peptide ([1]; clone 3HA15) [times] | binding affinity for HLA-A2.1, fold lower than the HA-1^H peptide ([2]; HA-1^R versus HA-1^H peptide) [fold] |
| --- | --- | --- | --- | --- | --- | --- |
| VLHDDLLEA | 0.15 to 0.2 | recognition by all three clones | 30 | high affinity binders |  |  |
| VLRDDLLEA |  | One out of three clones (3HA15) tested showed recognition | 365 | intermediate binders | 1000 | 10 |
| YXTDRVMTV [synthetic peptide of candidate m/z 550; X stands for isoleucine or leucine] |  | not able to reconstitute the HA-1 epitope |  |  |  |  |

From patent US6830883B1, “Method for typing of minor histocompatibility antigen HA-1” (Rijksuniversiteit Leiden, priority 1997, dated 2004)
